Data taken from ChEMBL document CHEMBL5726444, “Pyrazole derivative” (2017).
pIC50: −log10 of the molar value.

Target: cAMP and cAMP-inhibited cGMP 3',5'-cyclic phosphodiesterase 10A (Homo sapiens, UniProt Q9Y233)
Test: Phosphodiersterase Evaluation Assay: IMAP TR-FRET Phosphodiersterase Evaluation Assay Kit (Molecular Device) was used for the measurement. Ten μL of a diluted test compound having each concentration and 5 μL of the enzyme PDE10 (BPA Bioscience) that had been diluted to 2 ng/mL with 1×IMAP Reaction Buffer (prepared with 5×included with the kit, 10 mM Tris-HCl, pH=7.2, 10 mM MgCl2, 0.05% NaN3, and 0.1% BSA) containing 0.1% BSA were added to a 384-well plate (Corning). The obtained mixture was then pre-incubated at room temperature for 5 minutes. Thereafter, 5 μL of cAMP substrate solution which was included with the kit and diluted to 400 nM with 1×IMAP Reaction Buffer containing 0.1% BSA, was added to the reaction solution, and the obtained mixture was reacted at room temperature for 60 minutes. Thereafter, 60 μL of an IMAP TR-FRET Binding solution included with the kit was further added to the reaction solution, and the obtained mixture was then left for 3 hours or more. Subsequently, using ARVO SX (PerkinElmer), the fluorescent intensity of Terbium (Emission=490 nm) and TR-FRET (Emission=520 nm) in the reaction solution were measured at an excitation wavelength of 340 nm, so as to calculate the amount of the generated 5′-AMP. […]

Chain of cAMP and cAMP-inhibited cGMP 3',5'-cyclic phosphodiesterase 10A (Q9Y233 whole entry): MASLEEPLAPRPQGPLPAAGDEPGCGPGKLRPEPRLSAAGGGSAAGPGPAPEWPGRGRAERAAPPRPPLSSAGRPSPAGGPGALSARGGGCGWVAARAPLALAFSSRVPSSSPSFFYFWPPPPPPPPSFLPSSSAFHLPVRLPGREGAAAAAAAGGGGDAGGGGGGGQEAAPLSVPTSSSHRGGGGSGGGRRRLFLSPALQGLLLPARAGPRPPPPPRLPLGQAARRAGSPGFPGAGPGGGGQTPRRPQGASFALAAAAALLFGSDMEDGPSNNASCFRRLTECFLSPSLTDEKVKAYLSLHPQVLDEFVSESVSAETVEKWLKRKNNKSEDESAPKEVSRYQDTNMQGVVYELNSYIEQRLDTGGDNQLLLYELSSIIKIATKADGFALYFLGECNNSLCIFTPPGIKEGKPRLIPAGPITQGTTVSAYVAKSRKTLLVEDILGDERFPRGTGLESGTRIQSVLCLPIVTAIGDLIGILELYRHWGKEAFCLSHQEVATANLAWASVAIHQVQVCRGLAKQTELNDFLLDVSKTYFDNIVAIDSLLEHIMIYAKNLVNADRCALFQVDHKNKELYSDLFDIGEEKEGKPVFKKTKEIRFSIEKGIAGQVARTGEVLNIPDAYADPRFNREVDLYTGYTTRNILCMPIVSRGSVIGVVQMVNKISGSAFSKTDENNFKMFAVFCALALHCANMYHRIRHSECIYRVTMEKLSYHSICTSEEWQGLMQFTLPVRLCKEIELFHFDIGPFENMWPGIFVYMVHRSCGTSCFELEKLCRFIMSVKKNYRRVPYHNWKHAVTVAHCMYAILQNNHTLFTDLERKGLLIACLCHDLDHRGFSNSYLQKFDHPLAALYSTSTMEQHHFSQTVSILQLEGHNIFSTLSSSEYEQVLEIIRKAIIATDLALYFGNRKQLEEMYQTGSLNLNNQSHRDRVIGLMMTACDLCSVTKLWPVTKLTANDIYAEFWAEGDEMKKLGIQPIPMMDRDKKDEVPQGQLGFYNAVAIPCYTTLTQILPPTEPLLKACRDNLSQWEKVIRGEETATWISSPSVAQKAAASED

pIC50: > 8.30
Structure (SMILES): Cc1cccc(-c2cnn(C)c2C(=O)Nc2cc3nc(N4CCC[C@@H]4C(F)(F)F)nn3cc2F)n1
